One test has as its target T1, NOX4 (Homo sapiens, UniProt Q9NPH5).
T1 construct: expressed in transfected cells
T1 sequence (Q9NPH5 1-578): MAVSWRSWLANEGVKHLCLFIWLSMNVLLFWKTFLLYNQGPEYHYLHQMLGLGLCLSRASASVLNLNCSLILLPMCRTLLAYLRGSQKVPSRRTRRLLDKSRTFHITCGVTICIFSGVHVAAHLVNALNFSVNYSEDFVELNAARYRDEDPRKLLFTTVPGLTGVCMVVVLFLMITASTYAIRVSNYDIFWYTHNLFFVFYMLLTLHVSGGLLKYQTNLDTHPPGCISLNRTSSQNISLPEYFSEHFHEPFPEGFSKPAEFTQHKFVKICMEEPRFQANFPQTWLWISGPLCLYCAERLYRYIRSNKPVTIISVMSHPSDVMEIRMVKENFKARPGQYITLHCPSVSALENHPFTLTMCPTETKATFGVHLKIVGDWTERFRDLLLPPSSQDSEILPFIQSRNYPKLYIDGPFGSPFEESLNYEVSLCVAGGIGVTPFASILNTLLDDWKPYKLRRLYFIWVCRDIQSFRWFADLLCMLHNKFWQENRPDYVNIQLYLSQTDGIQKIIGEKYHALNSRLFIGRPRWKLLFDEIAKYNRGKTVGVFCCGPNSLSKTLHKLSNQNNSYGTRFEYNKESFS
T1 sequence (P13498 2-195 partner limits assumed): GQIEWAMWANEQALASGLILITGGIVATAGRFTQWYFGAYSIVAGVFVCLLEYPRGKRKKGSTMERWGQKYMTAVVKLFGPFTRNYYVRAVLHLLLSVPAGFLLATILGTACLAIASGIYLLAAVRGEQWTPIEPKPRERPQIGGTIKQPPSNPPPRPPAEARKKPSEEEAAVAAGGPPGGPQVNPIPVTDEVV
As to the kind of experiment: NOX4 HEK293 overexpression cell-based assay (Amplex Red H2O2). The following applies: HEK293 cells stably overexpressing NOX4, DMSO = 0, GKT137831 = 100; for inhibition at 1 µM: HEK293, 1000 nM; for inhibition at 0.1 µM: HEK293, 100 nM. Summed up:
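HEK293 cells stably overexpressing NOX4 (3×10^4) preincubated 30 min at 37° C with compound in KRPG buffer, then mixed with Amplex Red reagent solution (50 μM Amplex Red, 0.1 units/mL HRP) for 90 min at 37° C in the dark. Supernatant fluorescence read at 530/590 nm; DMSO set to 0 and GKT137831 to 100.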

A further test has as its target T2, NOX2 (Homo sapiens, UniProt P04839).
T2 construct: HL-60 cells, rich in NOX2 expression; endogenous in cells; host or cells: DMSO-differentiated HL-60
T2 sequence (P04839 2-570 limits assumed): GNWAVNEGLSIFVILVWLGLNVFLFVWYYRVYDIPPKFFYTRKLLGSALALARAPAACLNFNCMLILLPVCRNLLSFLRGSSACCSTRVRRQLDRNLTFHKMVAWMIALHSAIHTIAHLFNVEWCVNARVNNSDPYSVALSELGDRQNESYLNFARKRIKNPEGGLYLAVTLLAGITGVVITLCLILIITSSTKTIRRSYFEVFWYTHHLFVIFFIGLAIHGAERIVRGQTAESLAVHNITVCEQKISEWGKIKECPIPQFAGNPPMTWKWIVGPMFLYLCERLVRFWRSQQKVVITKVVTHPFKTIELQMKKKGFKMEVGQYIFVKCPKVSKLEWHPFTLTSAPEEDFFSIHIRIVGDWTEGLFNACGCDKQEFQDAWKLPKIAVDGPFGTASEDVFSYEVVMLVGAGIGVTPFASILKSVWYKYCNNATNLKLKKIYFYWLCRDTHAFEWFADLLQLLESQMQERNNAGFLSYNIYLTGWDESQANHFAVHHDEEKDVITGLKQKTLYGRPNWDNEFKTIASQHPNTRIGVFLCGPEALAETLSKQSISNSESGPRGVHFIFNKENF
T2 sequence (P13498 2-195 partner limits assumed): T1 sequence (P13498 2-195 partner limits assumed)
The test is described as follows: NOX2 HL60 cell-based assay (PMA oxidative burst, L012 chemiluminescence). The following applies: DMSO-differentiated HL-60 cells, PMA-stimulated; for inhibition at 0.1 µM: HL-60, 100 nM; for inhibition at 1 µM: HL-60, 1000 nM. Summed up:
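DMSO-differentiated HL-60 cells (2.5×10^5/well) with 100 μM L012 preincubated with compound 30-60 min at 37 °C in the dark. Oxidative burst triggered by 10 ng/mL PMA; superoxide chemiluminescence read every 5 min for 60 min.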

The target in another test is T3, NOX1 (Homo sapiens, UniProt Q9Y5S8).
T3 construct: endogenous in cells; host or cells: HT29
T3 sequence (Q9Y5S8 1-564): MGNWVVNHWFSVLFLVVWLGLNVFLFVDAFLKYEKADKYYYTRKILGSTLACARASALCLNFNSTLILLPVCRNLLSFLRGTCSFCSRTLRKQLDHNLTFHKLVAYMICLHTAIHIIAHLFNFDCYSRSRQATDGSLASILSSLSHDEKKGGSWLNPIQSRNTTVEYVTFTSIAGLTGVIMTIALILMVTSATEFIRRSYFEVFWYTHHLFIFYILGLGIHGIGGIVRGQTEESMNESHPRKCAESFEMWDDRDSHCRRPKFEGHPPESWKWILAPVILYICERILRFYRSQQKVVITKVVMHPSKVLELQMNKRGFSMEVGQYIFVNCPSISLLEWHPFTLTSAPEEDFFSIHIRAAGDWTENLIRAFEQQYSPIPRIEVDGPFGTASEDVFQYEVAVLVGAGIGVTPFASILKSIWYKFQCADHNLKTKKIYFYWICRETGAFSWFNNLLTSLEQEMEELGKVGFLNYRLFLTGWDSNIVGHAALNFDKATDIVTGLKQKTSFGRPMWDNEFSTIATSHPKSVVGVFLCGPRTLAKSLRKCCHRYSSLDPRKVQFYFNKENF
T3 sequence (P13498 2-195 partner limits assumed): T1 sequence (P13498 2-195 partner limits assumed)
As to the kind of experiment: NOX1 HT29 cell-based assay (luminol/HRP luminescence). The following applies: HT29 cells, DMSO = 0%, GKT137831 = 100%; for inhibition at 0.1 µM / inhibition at 1 µM: HT-29; for inhibition at 1 µM: 1000 nM. Summed up: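 HT29 cells (1-2×10^5 per well) pretreated 30-60 min at 37 °C with compound at 100 nM and 1000 nM final, in duplicate, 0.1% DMSO. ROS read as luminol (100 μM)/HRP (0.4 U) luminescence. Activity normalised to DMSO (0%) and GKT137831 (100%).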

From US11661400B2, “NADPH oxidase inhibitors, pharmaceutical composition comprising the same, and application thereof” (TAIWANJ PHARMACEUTICALS CO., LTD., priority 2018, dated 2023) come the findings set out here.

By inhibition is commonly meant how much of the control response was suppressed. As to `COc1cc(Br)c(-c2[nH]c3cc(OC)c(OC)cc3c(=O)c2O)c(OC)c1` [Compound 27], the “% Inhibition NOX4” value on NOX4 (100 nM) was “C (the percent of inhibition of NOX by the compounds ranges from 2000 to 49%)”. Further, the inhibition at 1 µM against NOX4, at NOX2 and against NOX1 was no less than 80% each time. Moreover, the inhibition at 0.1 µM is no more than 19% against NOX2 and no less than 80% on NOX1 (100 nM).

As to `COc1cc2[nH]c(-c3ccccc3[N+](=O)[O-])c(O)c(=O)c2cc1OC` [Compound 29, 3-hydroxy-6,7-dimethoxy-2-(2-nitrophenyl) quinolin-4(1H)-one 2,2,2-trifluoroacetate], the inhibition at 0.1 µM was 50 to 79% on NOX4 and no less than 80% at NOX1 (100 nM). Also, the figures for the inhibition at 1 µM at NOX4, at NOX2 and on NOX1 were 50 to 79%, no less than 80% and no less than 80%, respectively. Moreover, the “% Inhibition NOX2” value on NOX2 (100 nM) is on record as “C (the percent of inhibition of NOX by the compounds ranges from 2000 to 49%)”.

Turning to `COc1cc2[nH]c(-c3ccccc3N)c(O)c(=O)c2cc1OC` [Compound 30, 2-(2-aminophenyl)-3-hydroxy-6,7-dimethoxyquinolin-4(1H)-one], the inhibition at 0.1 µM is no more than 19% at NOX4, 50 to 79% against NOX2 and no more than 19% on NOX1 (100 nM). For the same compound, the inhibition at 1 µM at NOX4 is no more than 19%; at NOX2, no less than 80%; against NOX1, no less than 80%.

On to `COc1ccc(C(=O)COC(=O)c2ccc3c(=O)c(O)c(-c4ccc(OC)cc4)[nH]c3c2)cc1` [Compound 32, 2-(4-methoxyphenyl)-2-oxoethyl 3-hydroxy-2-(4-methoxyphenyl)-4-oxo-1,4-dihydroquinoline-7-carboxylate 2,2,2-trifluoroacetate], for which the “% Inhibition NOX4” value on NOX4 (1000 nM) is recorded as “C (the percent of inhibition of NOX by the compounds ranges from 2000 to 49%)”. In addition, the inhibition at 0.1 µM against NOX4 and against NOX1 (100 nM) was no more than 19% each time. In addition, the “% Inhibition NOX2” value at NOX2 (100 nM) and on NOX2 (1000 nM) was “C (the percent of inhibition of NOX by the compounds ranges from 2000 to 49%)” in each case. The compound also registered an inhibition at 1 µM at NOX1 of 50 to 79%.

As for `COc1ccc(-c2[nH]c3cc(C(=O)O)ccc3c(=O)c2O)cc1` [Compound 33, 3-hydroxy-2-(4-methoxyphenyl)-4-oxo-1,4-dihydroquinoline-7-carboxylic acid], the values for the inhibition at 0.1 µM against NOX4, at NOX2 and against NOX1 (100 nM) were no more than 19%, no more than 19% and no less than 80%, respectively. In addition, the inhibition at 1 µM is 50 to 79% against NOX4, 50 to 79% at NOX2 and no less than 80% on NOX1.

For `COc1ccc2[nH]c(C(=O)c3ccccc3OC)c(O)c(=O)c2c1` [Compound 34, 3-hydroxy-6-methoxy-2-(2-methoxybenzoyl) quinolin-4(1H)-one], the inhibition at 0.1 µM on NOX4, on NOX2 and at NOX1 (100 nM) was no more than 19% throughout. For the same compound, the inhibition at 1 µM on NOX4, against NOX2 and against NOX1 was no more than 19% throughout.

For the compound `COc1cc2c(cc1OC)C(=O)NCC(c1ccccc1Cl)=N2` [Compound 35, 2-(2-chlorophenyl)-7,8-dimethoxy-3,4-dihydro-5H-benzo[e][1,4] diazepin-5-one], the inhibition at 0.1 µM against NOX4, on NOX2 and at NOX1 (100 nM) was no more than 19% throughout. Further, the inhibition at 1 µM against NOX4, against NOX2 and against NOX1 was no more than 19% in each case.

`COc1cc2[nH]c(-c3ccccc3Cl)c(N)c(=O)c2cc1OC` [Compound 36, 3-amino-2-(2-chlorophenyl)-6,7-dimethoxyquinolin-4(1H)-one]: at NOX4, the inhibition at 0.1 µM was no more than 19%. In addition, the inhibition at 1 µM on NOX4 was 50 to 79%; at NOX2 it was no less than 80%; against NOX1, no less than 80%. Moreover, the “% Inhibition NOX2” value on NOX2 (100 nM) is reported as “C (the percent of inhibition of NOX by the compounds ranges from 2000 to 49%)”. Moreover, at NOX1 (100 nM), the “% Inhibition NOX1” value is reported as “C (the percent of inhibition of NOX by the compounds ranges from 2000 to 49%)”.

In the case of `COc1cc2[nH]c(-c3ccccc3)c(N)c(=O)c2cc1OC` [Compound 37], the inhibition at 0.1 µM at NOX4 is no more than 19%; against NOX2, 50 to 79%; at NOX1 (100 nM), no more than 19%. The inhibition at 1 µM against NOX4 is 50 to 79%; on NOX2, no less than 80%; at NOX1, no less than 80%.

On to `COc1cc2[nH]c(-c3ccccc3OC)c(N)c(=O)c2cc1OC` [Compound 38], for which the “% Inhibition NOX4” value at NOX4 (1000 nM) was “C (the percent of inhibition of NOX by the compounds ranges from 2000 to 49%)”. Besides, the inhibition at 0.1 µM against NOX4, against NOX2 and against NOX1 (100 nM) was no more than 19% in each case. The inhibition at 1 µM against NOX2 and against NOX1 was no more than 19% in each case.

On to `COc1ccc(-c2c(O)c(=O)c3ccccc3n2C)cc1` [Compound 39], for which the inhibition at 0.1 µM on NOX4, against NOX2 and against NOX1 (100 nM) was no more than 19% each time. Further, the results for the inhibition at 1 µM at NOX4, at NOX2 and at NOX1 were 50 to 79%, no more than 19% and no less than 80%, respectively.

Take `COc1ccccc1-c1[nH]c2cccc(-c3cccc(N(C)C)c3)c2c(=O)c1O` [Compound 40]: the inhibition at 0.1 µM at NOX4 and against NOX1 (100 nM) was no more than 19% each time. For the same compound, the inhibition at 1 µM at NOX4 is 50 to 79%; against NOX2 it was 50 to 79%; against NOX1, no less than 80%. Besides, on NOX2 (100 nM), the “% Inhibition NOX2” value was “C (the percent of inhibition of NOX by the compounds ranges from 2000 to 49%)”.
